Measurements from patent publication US20250382588A1, “CHIMERIC AAV AND USES THEREOF” (priority 2023, published 2025).

How the values were obtained:
Format in all cases: in vivo
hM3Dq or rM3Ds = test: Locomotion test after nigral DREADD AAV and CNO in macaques
Experimental: To guide the virus injection in SNr, a guide grid of multiple holes spaced by 1 mm was installed on each subject vertically above the SN. By filling vitamin E in these holes, the accurate coordinates for injection could be obtained from the T1-weighted MRI images (3T Tim Trio scanner, Siemens). Virus injections were performed in nine sites covering the whole SNr, and a total volume of 27 μL virus was unilaterally injected in the right SNr at the speed of 300 nL/min.
To intracranially administrate drug and/or perform electrophysiological recording, a recording chamber covering from anterior caudate to posterior GPi was fixed on the skull with 6 titanium screws and dental cement. Each subject was allowed to recover from the surgery for at least 6 weeks prior to further studies.
The locomotion tests for monkeys were conducted in a custom-made observation cage (100 cm×100 cm×100 cm). The top and front of the cage were made of toughened glass in order to gain a clear view for behavioral recording. Monkeys were habituated to the observation cage by placing them inside for 30 minutes on three separate days.
For monkeys injected with AAV8R12-G88P3-HA-hM3Dq, CNO was intracranially infused into the dorsomedial caudate through the recording chamber. To infuse while the animal was awake, the monkey was trained to sit in a primate chair specially designed with its head fixed to the primate chair by a mask made of thermoplastic materials. Injections were conducted through a 33-Gauge needle connected to a 250 μL syringe via a polyethylene pipe (Hamilton, Neuros). […] The needle was held for 5 minutes for drug diffusion before retraction. […] Videos capturing the subjects' behavior were recorded for at least 90 minutes. Animal behaviors from 30-90 minutes after saline/CNO infusion were further analyzed and quantified.
For rotation analysis, only movements that occurred lower than 30 cm on the z-axis were counted. To determine the direction of the rotation, we first computed the center for the rotation data in the x-y plane as (x0, y0) by averaging all data points, and then we computed the angle relative to (x0, y0) for each time point by the following formula:
where θi represents the rotating angle at time i, and (xi, yi) represents the x-y coordinate at time i. We then calculated the change of rotating angle as Δθi=θi−θi-1. For right nigral injections, when Δθ<0, the direction of the rotation was anticlockwise and was labeled as a contraversive rotation. When Δθ>0, the direction of the rotation was clockwise and was labeled as an ipsiversive rotation. The raw data were analyzed and plotted through a custom R package. Code is available on Github (github.com/chenyef/PD_ana/blob/main/Behavior_ana.txt).

hM3Dq = target: T1, hM3Dq (Homo sapiens, UniProt P20309, A239G/Y149C); test: Electrophysiological recording in caudate after CNO infusion, AAV8R12-G88P3-HA-hM3Dq macaques
T1 construct: HA (N); expressed in transfected cells; host or cells: neurons (striatal D1-MSNs, some SNr neurons) of C57BL/6J mice or cynomolgus macaques transduced by nigral AAV8R12-G88P3-HA-hM3Dq
T1 sequence (P20309 whole entry Y149C/A239G, the tested form may be a part): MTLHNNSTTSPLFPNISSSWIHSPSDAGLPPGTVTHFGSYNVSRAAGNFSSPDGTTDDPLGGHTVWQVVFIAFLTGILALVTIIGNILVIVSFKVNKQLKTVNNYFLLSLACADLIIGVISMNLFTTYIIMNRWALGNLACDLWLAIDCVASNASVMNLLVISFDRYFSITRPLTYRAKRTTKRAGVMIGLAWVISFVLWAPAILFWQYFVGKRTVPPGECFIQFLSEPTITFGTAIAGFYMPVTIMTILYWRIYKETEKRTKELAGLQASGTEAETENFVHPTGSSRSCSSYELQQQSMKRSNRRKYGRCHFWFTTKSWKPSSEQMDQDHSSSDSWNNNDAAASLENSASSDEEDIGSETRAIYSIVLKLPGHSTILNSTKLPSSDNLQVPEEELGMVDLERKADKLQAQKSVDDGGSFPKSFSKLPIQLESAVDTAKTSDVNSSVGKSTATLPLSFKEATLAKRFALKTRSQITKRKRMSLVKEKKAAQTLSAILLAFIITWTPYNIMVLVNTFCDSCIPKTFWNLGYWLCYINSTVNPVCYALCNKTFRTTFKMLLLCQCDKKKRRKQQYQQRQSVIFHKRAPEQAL
Experimental: (§1) Electrophysiological recording was performed through a recording chamber while the monkey was anesthetized. Neural responses were recorded by a 16-channel linear probe (Plexon Inc, Uprobe) driven by a mechanical microdrive (Alpha Omega, FlexMT). Signals were passed through a head stage (Plexon Inc, HST/16V-G20 LN) and then split and filtered between 300 Hz and 5 kHz to identify spiking activity with an amplifier system (Plexon Inc, OmniPlex). Detected spikes were then sorted by commercially available software (Plexon Inc, Offline Sorter) for further analysis. To quantify the effect of CNO/DCZ injection, neural activity was recorded for 60 minutes following CNO/DCZ injection. The response time-course for each channel was obtained by counting the spikes within every 10-minute window and then normalizing to the maximal.
To determine the effect of CNO/DCZ injection on the direction of signal change, we performed Pearson correlation between neural responses and time using the ‘corr’ function in Matlab, which generates the correlation coefficient ‘r’ and significant level ‘p’. A neuron was considered to have “Increased” activity when r>0 and p<[…]; and considered to have “Decreased” activity when r<0 and p<0.05. Otherwise, neurons were considered to be “Unchanged” in their neural activities. The responses of all increased neurons were then averaged after being normalized by the maximal response (Crowe et al., 2014; Dai and Wang, 2018; Hirokawa et al., 2019) following CNO/DCZ injection, and then plotted as a function of time to generate the normalized population response.

rM3Ds = target: T2, rM3Ds (Rattus norvegicus, UniProt P08483, A177S/A238G/A489L/DEL261-437/DEL441-478/E258S/I253V/I483M/INS256[…]/K178L/K182A/K255R/K484R/K486H/L173F/L482A/M480V/R171S/R176Q/R179M/S481M/T174R/T181R/T257A/Y148C); test: Electrophysiological recording in caudate/putamen after intramuscular CNO, rM3Ds macaques
T2 sequence (P08483 with tags, fused parts or gaps Y148C/R171S/L173F/T174R/R176Q/A177S/K178L/R179M/T181R/K182A/A238G/I253V/K255R/INS256[…]/T257A/E258S/DEL261-437/DEL441-478/M480V/S481M/L482A/I483M/K484R/K486H/A489L): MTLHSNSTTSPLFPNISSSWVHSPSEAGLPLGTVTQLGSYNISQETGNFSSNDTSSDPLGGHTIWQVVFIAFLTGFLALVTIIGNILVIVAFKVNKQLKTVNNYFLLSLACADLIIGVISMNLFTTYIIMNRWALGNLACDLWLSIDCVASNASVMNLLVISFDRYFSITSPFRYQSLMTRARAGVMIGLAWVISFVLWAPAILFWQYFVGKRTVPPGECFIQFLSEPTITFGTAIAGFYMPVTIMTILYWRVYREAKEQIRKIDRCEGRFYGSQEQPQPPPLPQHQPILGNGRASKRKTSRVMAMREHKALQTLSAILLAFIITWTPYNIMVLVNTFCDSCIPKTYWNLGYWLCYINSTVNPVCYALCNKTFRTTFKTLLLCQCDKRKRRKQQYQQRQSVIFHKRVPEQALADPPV
Experimental: as §1
To determine the effect of CNO/DCZ injection on the direction of signal change, we performed Pearson correlation between neural responses and time using the ‘corr’ function in Matlab, which generates the correlation coefficient ‘r’ and significant level ‘p’. A neuron was considered to have “Increased” activity when r>0 and p<[…]; and considered to have “Decreased” activity when r<0 and p<0.05. Otherwise, neurons were considered to be “Unchanged” in their neural activities. The responses of all increased neurons were then averaged after being normalized by the maximal response (Crowe et al., 2014; Dai and Wang, 2018; Hirokawa et al., 2019) following CNO/DCZ injection, and then plotted as a function of time to generate the normalized population response. […]

[1] = intracranial or systemic CNO, n=4
[2] = monkey CM045, 34 cells in caudate
[3] = 38 total cells in the caudate/putamen
[4] = monkey CM048, 38 cells in caudate

In the case of `C[N+]1([O-])CCN(C2=Nc3cc(Cl)ccc3Nc3ccccc32)CC1` [CNO, clozapine N-oxide], the “muscle tone of the contralateral biceps brachii (electromyogram)” value (hM3Dq or rM3Ds; following CNO infusions) is reported as “an increase in the muscle tone”, the “immobile time (FIG. 10E)” value (hM3Dq or rM3Ds; [1]) is reported as 89.13±8.379 and the “speed during contraversive rotations (FIG. 10G)” value (hM3Dq or rM3Ds; [1]) is reported as 46.98±6.669. For the same molecule, the “total distance (FIG. 10F)” value (hM3Dq or rM3Ds; [1]) was 97.37±19.41, the “velocity of ipsiversive rotations (FIG. 10H)” value (hM3Dq or rM3Ds; [1]) was 41.37±6.566 and the “cells activated (FIG. 12L)” value (hM3Dq; 34 total cells in the caudate) was 67.6%. The “cells inactivated (FIG. 12L)” value (hM3Dq; 34 total cells in the caudate) was 2.9%, the “cells unchanged (FIG. 12L)” value (hM3Dq; 34 total cells in the caudate) was 29.4% and the “cells activated (FIG. 12C)” value (hM3Dq; [2]) was 70.6%. The “cells inactivated (FIG. 12C)” value (hM3Dq; [2]) was 8.8%, the “cells unchanged (FIG. 12C)” value (hM3Dq; [2]) was 20.6% and the “cells activated (FIG. 12N)” value (rM3Ds; [3]) was 50%. For the same molecule, the “cells inactivated (FIG. 12N)” value (rM3Ds; [3]) was 13.2%, the “cells unchanged (FIG. 12N)” value (rM3Ds; [3]) was 36.8% and the “neuronal activity in retrogradely labeled D1-MSNs (opto-tagging)” value (rM3Ds; anesthetized macaques, AAV8R12-G88P7-HA-rM3Ds-2A-Cre) was “effectively induced an increase of neuronal activity”. The “cells activated (FIG. 12F)” value (rM3Ds; [4]) was 65.8%, the “cells inactivated (FIG. 12F)” value (rM3Ds; [4]) was 7.9% and the “cells unchanged (FIG. 12F)” value (rM3Ds; [4]) was 26.3%.
